The test system of data set [1] is mouse vas deferens (MVD). The format is cell-based.
Data set [2] deals with PBQ-induced writhing. Put plainly: Mouse writhing test with prior N-methyllevallorphan (NML). The format is in vivo. As to conditions: 10 mg/kg N-methyllevallorphan before peptide. The method, then: A variation of the mouse writhing experiment was also conducted to determine peripheral versus central binding preferences of certain peptides of this invention. In this experiment, 10 mg/kg of N-methyllevallorphan (NML), a known peripheral opioid antagonist, was administered to the mice before injection of the synthetic dermorphin peptide.
On the technique in general: In writhing tests, fewer writhes than in controls are read as antinociception.

In data set [3] the test system is guinea pig ileum (GPI). Put plainly: Ke values for naloxone as antagonist in the GPI assay. The format is cell-based. As to conditions: mean of three determinations ± SEM. The method, then:
κ-receptor interactions were determined by measuring Ke values for naloxone as an antagonist in the GPI assay. High Ke values (in the range of 20-30 nM) are associated with κ-receptor interactions. Low Ke values (in the range of 1-2 nM) are associated with μ-receptor interactions. Ke values for naloxone were determined from the ratio of IC50 values obtained in the presence of and in the absence of a fixed naloxone concentration. The IC50 values of the tested compounds were normalized according to published procedure (F. M. Leslie, "Methods Used for the Study of Opioid Receptors", Pharmacological Reviews, 39 (1987)).

Data set [4] relates to hot plate stimulus. Nature of the data set: Mouse hot plate test. Type of data set: in vivo. The note with it: for Hot plate ED50: mouse, in vivo; for ratio of ED50 for PBQ assay over ED50 for the hot plate assay: peripheral/central activity ratio; for % of animals showing a 50% increase: dose 40 mg/kg, time 120 min. The method, then:
The mouse hot plate test is an assay which only detects centrally-mediated analgesic effects. This test was carried out using the protocol described in G. Woolfe and A. MacDonald, J. Pharmacol. Exp. Ther., 80, p. 300 ([…]).
Since most of the peptides of the invention were not potent centrally, it was impossible to determine an ED50 value. […] A result is considered insignificant if 30% of mice or lower have responded.
On the technique in general: Thermal pain tests record how soon the animal reacts.

Data set [5] addresses T1, δ-opioid receptor (Rattus norvegicus, UniProt P33533).
T1 construct: displacement of the radioligands from the rat brain membrane preparations; from tissue; host or cells: rat brain membrane preparations
Put plainly: biochemical. The format is binding.

The test system of data set [6] is guinea pig ileum (GPI). Type of data set: cell-based.
Data set [7] in a line: Respiration rate (respiratory depression). The format is in vivo, rat. The note with it: dose 30 mg/kg; control 142 ± 5. The protocol:
In addition to the mouse writhing data, respiratory depression was measured in certain treated mice. Respiratory depression is a commonly observed side effect characteristic of centrally-acting opiates. These reulsts are expressed in Table 5.

The subject of data set [8] is PBQ-induced writhing. Put plainly: Mouse writhing test (PBQ). The format is in vivo. As to conditions: for PBQ (20 min.) ED50: dose reducing the number of writhes by 50%. The protocol: The mouse writhing test detects both peripherally and centrally mediated analgesic effects. The test procedure is described in Siegmund et al., Proc. Soc. Exp. Biol. Med., 95, p. 729 (1957). In this test, a control group of albino mice was injected intraperitoneally with 0.3 ml/20 g body weight of a 0.02% solution of 2-phenyl-1,4-benzoquinone (PBQ). The writhing and contortional movements of the mice over the following 15 minutes were recorded. A second group of mice was given a dose of a synthetic dermorphin analog according to this invention, then allowed to wait a period of time before being administered the PBQ injection. The average number of writhes was then recorded and compared to the control group. The results of this test are expressed as the dosage of peptide that reduces the number of writhes by 50% at a given time interval (referred to as ED50).

For data set [9], the target named is T2, μ-opioid receptor (Rattus norvegicus, UniProt P33535).
T2 construct: displacement of the radioligands from the rat brain membrane preparations; from tissue; host or cells: rat brain membrane preparations
T2 sequence (P33535 whole entry): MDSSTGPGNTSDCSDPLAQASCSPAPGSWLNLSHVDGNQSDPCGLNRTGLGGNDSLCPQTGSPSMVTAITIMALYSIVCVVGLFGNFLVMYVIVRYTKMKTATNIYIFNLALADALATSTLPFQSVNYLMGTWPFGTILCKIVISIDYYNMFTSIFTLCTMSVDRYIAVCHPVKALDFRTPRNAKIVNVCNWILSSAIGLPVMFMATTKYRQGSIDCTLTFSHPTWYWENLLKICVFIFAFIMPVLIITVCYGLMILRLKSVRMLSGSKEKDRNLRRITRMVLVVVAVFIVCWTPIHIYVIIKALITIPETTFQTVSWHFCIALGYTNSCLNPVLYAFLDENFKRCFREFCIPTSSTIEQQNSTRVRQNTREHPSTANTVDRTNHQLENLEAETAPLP
Put plainly: biochemical. The format is binding.

Where two headings read alike, the source gives them in different places. Non-standard residues stand in square brackets, D forms with d. Residues, ends and D or L forms follow the SMILES beside them. dNle = CCCC[C@@H](N)C(=O)O; dNva = CCC[C@@H](N)C(=O)O; Orn = NCCC[C@H](N)C(=O)O

T1 sequence (P33533 whole entry): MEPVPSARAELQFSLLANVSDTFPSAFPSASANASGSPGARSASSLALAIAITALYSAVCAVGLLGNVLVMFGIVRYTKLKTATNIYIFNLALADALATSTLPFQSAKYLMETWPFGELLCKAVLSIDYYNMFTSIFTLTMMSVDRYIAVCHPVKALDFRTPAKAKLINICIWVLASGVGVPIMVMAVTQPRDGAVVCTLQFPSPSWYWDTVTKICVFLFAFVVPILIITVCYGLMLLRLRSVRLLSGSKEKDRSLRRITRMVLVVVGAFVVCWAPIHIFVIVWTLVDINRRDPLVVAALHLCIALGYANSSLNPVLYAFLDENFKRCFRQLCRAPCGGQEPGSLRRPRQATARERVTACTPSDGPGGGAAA

Turning to `NCCCC[C@H](NC(=O)[C@H](Cc1ccccc1)NC(=O)[C@@H](CCCN=C(N)N)NC(=O)[C@@H](N)Cc1ccc(O)cc1)C(N)=O` [BCH-150, H-Tyr-D-Arg-Phe-Lys-NH2], the IC50 (usually the concentration at which inhibition is half-maximal) was found to be 781 ± 146 nM in data set [1] and 338 ± 41 nM in data set [6]. In addition, the “Antagonism of antinociceptive effect by prior NML” value (from here on “Antagonism”) in data set [2] is listed as “partially or totally antagonized”. For the same molecule, the “Ke (naloxone)” value in data set [3] was found to be 1.17 ± 0.08 nm. Also, the “Hot plate ED50” value in data set [4] amounted to 19 mg/kg. Also, the Ki (as a rule, a measure of affinity in units of concentration, obtained from inhibition or displacement) in data set [5] (read-out: [3H]HSLET Ki^δ) was 19200 nM. The Breaths per min. in data set [7] is reported as 121 ± 6 breaths per min. The “PBQ (20 min.) ED50” value in data set [8] is 0.65 mg/kg.

`CCC[C@@H](NC(=O)[C@@H](N)Cc1ccc(O)cc1)C(=O)N[C@@H](Cc1ccccc1)C(=O)N[C@@H](CCCN)C(N)=O` [BCH-752, H-Tyr-D-Nva-Phe-Orn-NH2] (H-Y[dNva]F[Orn]-NH2): in data set [1], the midpoint of inhibition, the IC50, lay at 271 ± 63 nM and the MVD relative potency turned out to be 0.0420 ± 0.0098. Besides, in data set [2], the “Antagonism” value was “partially or totally antagonized”. For the same molecule, in data set [3], the “Ke (naloxone)” value is given as 1.55 ± 0.23 nm. Besides, in [4], the “Hot plate ED50” value is reported as 5.2 mg/kg and the “ratio of ED50 for PBQ assay over ED50 for the hot plate assay” value came out at 26. In addition, the Ki in data set [5] (read-out: [3H]HSLET Ki^δ) worked out at 2200 nM. Moreover, in [6], the GPI relative potency is recorded as 2.36 ± 0.33, the IC50 was 104 ± 15 nM and the “MVD/GPI IC50 ratio” value came out at 2.61. In addition, the “Ki^δ /Ki^μ” value in data set [9] came out at 1880. The Ki in [9] (read-out: [3H]DAGO Ki^μ) came to 1.17 nM. The molecule also registered a Breaths per min. in data set [7] of 122 ± 14 breaths per min. In addition, the “PBQ (20 min.) ED50” value in [8] came out at 0.2 mg/kg.

In data set [1], `CCCC[C@@H](NC(=O)[C@@H](N)Cc1ccc(O)cc1)C(=O)N[C@@H](Cc1ccccc1)C(=O)N[C@@H](CCCN)C(N)=O` [BCH-1763, H-Tyr-D-Nle-Phe-Orn-NH2] (H-Y[dNle]F[Orn]-NH2) had an IC50 of 2290 ± 270 nM and an MVD relative potency of 0.00498 ± 0.00058. Moreover, the “Ke (naloxone)” value in data set [3] was 1.01 ± 0.18 nm. For the same molecule, the “% of animals showing a 50% increase” value in data set [4] is on record as 90%. Also, the Ki in data set [5] (read-out: [3H]HSLET Ki^δ) came out at 2870 nM. Also, in data set [6], the GPI relative potency is 1.46 ± 0.29, the IC50 was 168 ± 33 nM and the “MVD/GPI IC50 ratio” value worked out at 13.6. Besides, in [9], the “Ki^δ /Ki^μ” value was determined as 2130. For the same molecule, the Ki in data set [9] (read-out: [3H]DAGO Ki^μ) came out at 1.35 nM. For the same molecule, the Breaths per min. in data set [7] is listed as 162 ± 10 breaths per min. Moreover, the “PBQ (20 min.) ED50” value in [8] is 0.3 mg/kg.

As for `N=C(N)NCCC[C@@H](NC(=O)[C@@H](N)Cc1ccc(O)cc1)C(=O)N[C@@H](Cc1ccccc1)C(=O)N[C@@H](CCCN)C(N)=O` [BCH-1765, H-Tyr-D-Arg-Phe-Orn-NH2], in data set [1], the IC50 is 1090 ± 279 nM and the MVD relative potency was determined as 0.0105 ± 0.0027. In addition, in data set [3], the “Ke (naloxone)” value is 1.24 ± 0.12 nm. Further, the “% of animals showing a 50% increase” value in [4] is listed as 100%. Further, in data set [5] (read-out: [3H]HSLET Ki^δ), the Ki stood at 9290 nM. Besides, in [6], the GPI relative potency was 0.712 ± 0.249, it took 346 ± 121 nM to reach half-maximal inhibition (IC50) and the “MVD/GPI IC50 ratio” value is given as 3.15. Further, the “Ki^δ /Ki^μ” value in data set [9] was found to be 7740. The Ki in data set [9] (read-out: [3H]DAGO Ki^μ) was determined as 1.2 nM. Also, the “PBQ (20 min.) ED50” value in data set [8] was below 1 mg/kg.

On to `CCC[C@@H](NC(=O)[C@@H](N)Cc1ccc(O)cc1)C(=O)N[C@@H](Cc1ccccc1)C(=O)N[C@@H](CCCCN)C(N)=O` [BCH-2200, H-Tyr-D-Nva-Phe-Lys-NH2] (H-Y[dNva]FK-NH2), for which, in data set [2], the “Antagonism” value is listed as “partially or totally antagonized”. The molecule also returned a Ki in data set [5] above 2530 nM. In data set [9], the Ki turned out to be 2.27 nM and the “Ki^δ /Ki^μ” value was above 1110. The “PBQ (20 min.) ED50” value in data set [8] is 0.3 mg/kg.

Turning to `CN1CC[C@]23c4c5ccc(O)c4O[C@H]2[C@@H](O)C=C[C@H]3[C@H]1C5` [morphine, reference compound], the “Antagonism” value in data set [2] was “not antagonized”. Also, the ED50 (in general, the dose that gives a 50% effect, or the effect in half of the subjects) in data set [4] (Mus musculus) worked out at 2.7 mg/kg; in data set [8] (Mus musculus, 20 min, read-out: PBQ (20 min.) ED50, dose reducing the number of writhes by 50%) it was 0.6 mg/kg. For the same molecule, in data set [4], the “ratio of ED50 for PBQ assay over ED50 for the hot plate assay” value was 4.5. Besides, in data set [7], the Breaths per min. is 104 ± 6 breaths per min.

The values are drawn from US5602100A, “Dermorphin analogs having pharmacological activity” (priority 1988, dated 1997).
